{"source": "patent US20250176599A1", "about": "“FLAVOR COMPOSITION AND FOOD AND BEVERAGE” (TAKASAGO INTERNATIONAL CORPORATION, priority 2021, published 2025)", "key": {"[1]": {"test": "Sensory evaluation of aqueous solution III containing 1-octen-3-one 1 ppb: off-flavor intensity and masking component intensity", "conditions": "average panel score", "method_in_brief": "(§1)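 Eight trained panelists tasted water solutions of the off-flavor compounds spiked with nootkatone. Masking-agent taste was scored absolutely from 0 (not sensed) to 4 (strong). Off-flavor was scored relatively, anchored at 4 for the solution without masker and 0 for ion-exchanged water.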"}, "[2]": {"test": "Sensory evaluation of aqueous solution IV containing 1,5-octadien-3-one 100 ppt: off-flavor intensity and masking component intensity", "conditions": "aqueous solution IV, average panel score", "method_in_brief": "as §1"}, "[3]": {"test": "Sensory evaluation of aqueous solution VI containing 1,5-octadien-3-ol 10 ppb: off-flavor intensity and masking component intensity", "conditions": "aqueous solution VI, average panel score", "method_in_brief": "as §1"}, "[4]": {"test": "Sensory evaluation of aqueous solution II containing (E)-2-octenal 10 ppb: off-flavor intensity and masking component intensity", "conditions": "average panel score", "method_in_brief": "as §1"}, "[5]": {"test": "Overall conclusion of the sensory evaluation across aqueous solutions I to VI", "method_in_brief": "as §1"}, "[6]": {"test": "Sensory evaluation of aqueous solution V containing 1-octen-3-ol 10 ppb: off-flavor intensity and masking component intensity", "conditions": "average panel score", "method_in_brief": "as §1"}, "[7]": {"test": "Sensory evaluation of aqueous solution I containing (E)-2-nonenal 1 ppb: off-flavor intensity and masking component intensity", "conditions": "average panel score", "method_in_brief": "as §1"}}, "data": [{"smiles": "C=CC(C)(O)CCC=C(C)CCC=C(C)C", "note": "(centres unmarked) [nerolidol]", "values": [{"measurement": "Masking Component Intensity", "setting": "[1]; 1 ppb added", "result": 0.4}, {"measurement": "Off-Flavor Intensity", "setting": "[1]; 1 ppb added", "result": 3.0}, {"measurement": "Masking Component Intensity", "setting": "[1]; 1 ppm added", "result": 2.1}, {"measurement": "Off-Flavor Intensity", "setting": "[1]; 1 ppm added", "result": 1.5}, {"measurement": "Masking Component Intensity", "setting": "[1]; 5 ppm added", "result": 3.4}, {"measurement": "Off-Flavor Intensity", "setting": "[1]; 5 ppm added", "result": 0.9}, {"measurement": "Masking Component Intensity", "setting": "[1]; 10 ppb added", "result": 0.8}, {"measurement": "Off-Flavor Intensity", "setting": "[1]; 10 ppb added", "result": 2.5}, {"measurement": "Masking Component Intensity", "setting": "[1]; 10 ppm added", "result": 3.6}, {"measurement": "Off-Flavor Intensity", "setting": "[1]; 10 ppm added", "result": 0.4}, {"measurement": "Masking Component Intensity", "setting": "[1]; 10 ppt added", "result": 0.1}, {"measurement": "Off-Flavor Intensity", "setting": "[1]; 10 ppt added", "result": 3.6}, {"measurement": "Masking Component Intensity", "setting": "[1]; 100 ppb added", "result": 1.5}, {"measurement": "Off-Flavor Intensity", "setting": "[1]; 100 ppb added", "result": 2.0}, {"measurement": "Masking Component Intensity", "setting": "[1]; 100 ppt added", "result": 0.3}, {"measurement": "Off-Flavor Intensity", "setting": "[1]; 100 ppt added", "result": 3.4}, {"measurement": "Masking Component Intensity", "setting": "[2]; 1 ppb added", "result": 0.4}, {"measurement": "Off-Flavor Intensity", "setting": "[2]; 1 ppb added", "result": 3.1}, {"measurement": "Masking Component Intensity", "setting": "[2]; 1 ppm added", "result": 2.0}, {"measurement": "Off-Flavor Intensity", "setting": "[2]; 1 ppm added", "result": 2.3}, {"measurement": "Masking Component Intensity", "setting": "[2]; 5 ppm added", "result": 3.0}, {"measurement": "Off-Flavor Intensity", "setting": "[2]; 5 ppm added", "result": 1.9}, {"measurement": "Masking Component Intensity", "setting": "[2]; 10 ppb added", "result": 0.6}, {"measurement": "Off-Flavor Intensity", "setting": "[2]; 10 ppb added", "result": 3.0}, {"measurement": "Masking Component Intensity", "setting": "[2]; 10 ppm added", "result": 3.6}, {"measurement": "Off-Flavor Intensity", "setting": "[2]; 10 ppm added", "result": 1.4}, {"measurement": "Masking Component Intensity", "setting": "[2]; 10 ppt added", "result": 0.1}, {"measurement": "Off-Flavor Intensity", "setting": "[2]; 10 ppt added", "result": 3.6}, {"measurement": "Masking Component Intensity", "setting": "[2]; 100 ppb added", "result": 1.3}, {"measurement": "Off-Flavor Intensity", "setting": "[2]; 100 ppb added", "result": 2.6}, {"measurement": "Masking Component Intensity", "setting": "[2]; 100 ppt added", "result": 0.1}, {"measurement": "Off-Flavor Intensity", "setting": "[2]; 100 ppt added", "result": 3.4}, {"measurement": "Masking Component Intensity", "setting": "[3]; 1 ppb added", "result": 0.3}, {"measurement": "Off-Flavor Intensity", "setting": "[3]; 1 ppb added", "result": 3.1}, {"measurement": "Masking Component Intensity", "setting": "[3]; 1 ppm added", "result": 2.5}, {"measurement": "Off-Flavor Intensity", "setting": "[3]; 1 ppm added", "result": 1.8}, {"measurement": "Masking Component Intensity", "setting": "[3]; 5 ppm added", "result": 3.5}, {"measurement": "Off-Flavor Intensity", "setting": "[3]; 5 ppm added", "result": 1.1}, {"measurement": "Masking Component Intensity", "setting": "[3]; 10 ppb added", "result": 0.8}, {"measurement": "Off-Flavor Intensity", "setting": "[3]; 10 ppb added", "result": 2.4}, {"measurement": "Masking Component Intensity", "setting": "[3]; 10 ppm added", "result": 3.9}, {"measurement": "Off-Flavor Intensity", "setting": "[3]; 10 ppm added", "result": 0.8}, {"measurement": "Masking Component Intensity", "setting": "[3]; 10 ppt added", "result": 0.0}, {"measurement": "Off-Flavor Intensity", "setting": "[3]; 10 ppt added", "result": 3.5}, {"measurement": "Masking Component Intensity", "setting": "[3]; 100 ppb added", "result": 1.3}, {"measurement": "Off-Flavor Intensity", "setting": "[3]; 100 ppb added", "result": 2.1}, {"measurement": "Masking Component Intensity", "setting": "[3]; 100 ppt added", "result": 0.1}, {"measurement": "Off-Flavor Intensity", "setting": "[3]; 100 ppt added", "result": 3.3}, {"measurement": "Masking Component Intensity", "setting": "[4]; 1 ppb added", "result": 0.4}, {"measurement": "Off-Flavor Intensity", "setting": "[4]; 1 ppb added", "result": 2.6}, {"measurement": "Masking Component Intensity", "setting": "[4]; 1 ppm added", "result": 2.4}, {"measurement": "Off-Flavor Intensity", "setting": "[4]; 1 ppm added", "result": 1.5}, {"measurement": "Masking Component Intensity", "setting": "[4]; 5 ppm added", "result": 3.4}, {"measurement": "Off-Flavor Intensity", "setting": "[4]; 5 ppm added", "result": 0.8}, {"measurement": "Masking Component Intensity", "setting": "[4]; 10 ppb added", "result": 0.8}, {"measurement": "Off-Flavor Intensity", "setting": "[4]; 10 ppb added", "result": 2.3}, {"measurement": "Masking Component Intensity", "setting": "[4]; 10 ppm added", "result": 3.8}, {"measurement": "Off-Flavor Intensity", "setting": "[4]; 10 ppm added", "result": 0.5}, {"measurement": "Masking Component Intensity", "setting": "[4]; 10 ppt added", "result": 0.0}, {"measurement": "Off-Flavor Intensity", "setting": "[4]; 10 ppt added", "result": 3.4}, {"measurement": "Masking Component Intensity", "setting": "[4]; 100 ppb added", "result": 1.5}, {"measurement": "Off-Flavor Intensity", "setting": "[4]; 100 ppb added", "result": 1.9}, {"measurement": "Masking Component Intensity", "setting": "[4]; 100 ppt added", "result": 0.1}, {"measurement": "Off-Flavor Intensity", "setting": "[4]; 100 ppt added", "result": 3.0}, {"measurement": "concentration that masks the off-flavor and does not affect the flavor of the food and/or beverage itself, lower limit", "setting": "[5]", "result": "≥ 100", "unit": "ppt"}, {"measurement": "concentration that masks the off-flavor and does not affect the flavor of the food and/or beverage itself, upper limit", "setting": "[5]", "result": "≤ 5", "unit": "ppm"}, {"measurement": "Masking Component Intensity", "setting": "[6]; 1 ppb added", "result": 0.6}, {"measurement": "Off-Flavor Intensity", "setting": "[6]; 1 ppb added", "result": 2.6}, {"measurement": "Masking Component Intensity", "setting": "[6]; 1 ppm added", "result": 2.6}, {"measurement": "Off-Flavor Intensity", "setting": "[6]; 1 ppm added", "result": 1.6}, {"measurement": "Masking Component Intensity", "setting": "[6]; 5 ppm added", "result": 3.5}, {"measurement": "Off-Flavor Intensity", "setting": "[6]; 5 ppm added", "result": 1.0}, {"measurement": "Masking Component Intensity", "setting": "[6]; 10 ppb added", "result": 0.9}, {"measurement": "Off-Flavor Intensity", "setting": "[6]; 10 ppb added", "result": 2.5}, {"measurement": "Masking Component Intensity", "setting": "[6]; 10 ppm added", "result": 3.9}, {"measurement": "Off-Flavor Intensity", "setting": "[6]; 10 ppm added", "result": 0.6}, {"measurement": "Masking Component Intensity", "setting": "[6]; 10 ppt added", "result": 0.1}, {"measurement": "Off-Flavor Intensity", "setting": "[6]; 10 ppt added", "result": 3.6}, {"measurement": "Masking Component Intensity", "setting": "[6]; 100 ppb added", "result": 1.4}, {"measurement": "Off-Flavor Intensity", "setting": "[6]; 100 ppb added", "result": 2.1}, {"measurement": "Masking Component Intensity", "setting": "[6]; 100 ppt added", "result": 0.3}, {"measurement": "Off-Flavor Intensity", "setting": "[6]; 100 ppt added", "result": 3.1}, {"measurement": "Masking Component Intensity", "setting": "[7]; 1 ppb added", "result": 0.4}, {"measurement": "Off-Flavor Intensity", "setting": "[7]; 1 ppb added", "result": 2.8}, {"measurement": "Masking Component Intensity", "setting": "[7]; 1 ppm added", "result": 2.0}, {"measurement": "Off-Flavor Intensity", "setting": "[7]; 1 ppm added", "result": 1.6}, {"measurement": "Masking Component Intensity", "setting": "[7]; 5 ppm added", "result": 2.9}, {"measurement": "Off-Flavor Intensity", "setting": "[7]; 5 ppm added", "result": 1.0}, {"measurement": "Masking Component Intensity", "setting": "[7]; 10 ppb added", "result": 0.6}, {"measurement": "Off-Flavor Intensity", "setting": "[7]; 10 ppb added", "result": 2.4}, {"measurement": "Masking Component Intensity", "setting": "[7]; 10 ppm added", "result": 3.8}, {"measurement": "Off-Flavor Intensity", "setting": "[7]; 10 ppm added", "result": 0.8}, {"measurement": "Masking Component Intensity", "setting": "[7]; 10 ppt added", "result": 0.1}, {"measurement": "Off-Flavor Intensity", "setting": "[7]; 10 ppt added", "result": 3.6}, {"measurement": "Masking Component Intensity", "setting": "[7]; 100 ppb added", "result": 1.1}, {"measurement": "Off-Flavor Intensity", "setting": "[7]; 100 ppb added", "result": 2.0}, {"measurement": "Masking Component Intensity", "setting": "[7]; 100 ppt added", "result": 0.3}, {"measurement": "Off-Flavor Intensity", "setting": "[7]; 100 ppt added", "result": 3.3}]}]}
